In US12281225B2, “Process for preparing stable polymers containing vinylimidazole” (BASF SE, priority 2018, dated 2025):

Experiments:
[1] = Physical stability; visual assessment (color, turbidity, phase separation); type: physicochemical; design: key: ++: no discernible change with respect to color, turbidity or phase separation; +: marginal change in color number, somewhat increased Tyndall effect but no turbidity; 0: easily discernible increase in color number and moderate turbidity−no phase separation; −: turbidity and change in color number readily discernible by visual assessment; −−: strong color change with strong turbidity and incipient phase separation
Procedure, shortened: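 Scoring was by eye on a scale from ++ to −−, where ++ means no change and −− means strong color change, strong turbidity and incipient phase separation. Color, turbidity and phase separation were the criteria.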

[2] = Iodine color number according to DIN 6162:2014-09; type: physicochemical
[3] = tested on: Yeast: Candida albicans, Candida valida, Rhodotorula rura, Saccharomyces cerevisiae; assay: Preservation test with periodic inoculation, yeast assessment; type: cell-based; details: for 60 d 40° C., yeast assess., 4th inoculation: sample stored 60 d at 40° C.; for Start sample measurement, yeast assess., 4th inoculation: freshly formulated
Procedure, shortened: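 Semiquantitative growth scores (−− no growth to ++ strong growth) from weekly agar streaks incubated 3 days at 25 °C. Preserved polymer samples got four weekly 0.5 ml inoculations (titer 10^9 organisms/ml), the first two days after preservative addition; testing began fresh and after 60-day storage at 40 °C.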

[4] = Analysis of active substance: preservative concentration before and after storage in VI-containing polymer solution; type: physicochemical; details: for active-substance concentration, 0 d, RT: before storage; for active-substance concentration, 14 d, 40° C.: storage 14 d at 40° C.; for active-substance concentration, 28 d, 40° C.: storage 28 d at 40° C.; for active-substance concentration, 60 d 40° C.: storage 60 d at 40° C.
Procedure, shortened: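 Preservatives (MIT, BIT, CMIT, OIT, DCOIT, iodopropynyl butyl carbamate) in aqueous vinylpyrrolidone–vinylimidazole copolymer solution quantified after dilution by isocratic RP18 chromatography with UV detection, using an acid-methanol eluent.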

[5] = Polymer P5 (HP56) with stabilizer

Physical stability, 60 d 40° C.* ([1]; Polymer P1 with stabilizer): + | Physical stability, 60 d 40° C.* ([1]; Polymer P2 with stabilizer): + | Physical stability, 60 d 40° C.* ([1]; Polymer P3 with stabilizer): + | Physical stability, 60 d 40° C.* ([1]; Polymer P4 with stabilizer): + | Physical stability, 60 d 40° C.* [1, 5]: + | Physical stability, 60 d 40° C.* ([1]; Polymer P6 with stabilizer): + | Physical stability, 60 d 40° C.* ([1]; Polymer P7 with stabilizer): + | Physical stability, 60 d 40° C.* ([1]; Polymer P8 with stabilizer): + | Physical stability, 60 d 40° C.* ([1]; Polymer P9 with stabilizer): ++ | Iodine color number, 60 d 40° C. ([2]; Polymer P1 with stabilizer): 2.7 | Iodine color number, start ([2]; Polymer P1 with stabilizer): 2.6 | Iodine color number, 60 d 40° C. ([2]; Polymer P2 with stabilizer): 3.1 | Iodine color number, start ([2]; Polymer P2 with stabilizer): 3.0 | Iodine color number, 60 d 40° C. ([2]; Polymer P3 with stabilizer): 3.3 | Iodine color number, start ([2]; Polymer P3 with stabilizer): 3.1 | Iodine color number, 60 d 40° C. ([2]; Polymer P4 with stabilizer): 3.3 | Iodine color number, start ([2]; Polymer P4 with stabilizer): 3.1 | Iodine color number, 60 d 40° C. [2, 5]: 3.3 | Iodine color number, start [2, 5]: 3.4 | Iodine color number, 60 d 40° C. ([2]; Polymer P6 with stabilizer): 3.5 | Iodine color number, start ([2]; Polymer P6 with stabilizer): 3.4 | Iodine color number, 60 d 40° C. ([2]; Polymer P7 with stabilizer): 3.5 | Iodine color number, start ([2]; Polymer P7 with stabilizer): 3.4 | Iodine color number, 60 d 40° C. ([2]; Polymer P8 with stabilizer): 3.5 | Iodine color number, start ([2]; Polymer P8 with stabilizer): 3.2 | Iodine color number, 60 d 40° C. ([2]; Polymer P9 with stabilizer): 3.9 | Iodine color number, start ([2]; Polymer P9 with stabilizer): 3.7 | active-substance concentration, 0 d, RT ([4]; in Polymer P1): 1000 ppm | active-substance concentration, 14 d, 40° C. ([4]; in Polymer P1): 960 ppm | active-substance concentration, 28 d, 40° C. ([4]; in Polymer P1): 960 ppm | active-substance concentration, 60 d 40° C. ([4]; in Polymer P1): 940 ppm | active-substance concentration, 0 d, RT ([4]; in Polymer P2): 1000 ppm | active-substance concentration, 14 d, 40° C. ([4]; in Polymer P2): 960 ppm | active-substance concentration, 28 d, 40° C. ([4]; in Polymer P2): 960 ppm | active-substance concentration, 60 d 40° C. ([4]; in Polymer P2): 940 ppm | active-substance concentration, 0 d, RT ([4]; in Polymer P3): 1000 ppm | active-substance concentration, 14 d, 40° C. ([4]; in Polymer P3): 975 ppm | active-substance concentration, 28 d, 40° C. ([4]; in Polymer P3): 968 ppm | active-substance concentration, 60 d 40° C. ([4]; in Polymer P3): 952 ppm | active-substance concentration, 0 d, RT ([4]; in Polymer P4): 1000 ppm | active-substance concentration, 14 d, 40° C. ([4]; in Polymer P4): 964 ppm | active-substance concentration, 28 d, 40° C. ([4]; in Polymer P4): 960 ppm | active-substance concentration, 60 d 40° C. ([4]; in Polymer P4): 944 ppm | active-substance concentration, 0 d, RT ([4]; in Polymer P5 (HP56)): 1000 ppm | active-substance concentration, 14 d, 40° C. ([4]; in Polymer P5 (HP56)): 960 ppm | active-substance concentration, 28 d, 40° C. ([4]; in Polymer P5 (HP56)): 960 ppm | active-substance concentration, 60 d 40° C. ([4]; in Polymer P5 (HP56)): 940 ppm | active-substance concentration, 0 d, RT ([4]; in Polymer P6): 1000 ppm | active-substance concentration, 14 d, 40° C. ([4]; in Polymer P6): 970 ppm | active-substance concentration, 28 d, 40° C. ([4]; in Polymer P6): 961 ppm | active-substance concentration, 60 d 40° C. ([4]; in Polymer P6): 954 ppm | active-substance concentration, 0 d, RT ([4]; in Polymer P7): 1000 ppm | active-substance concentration, 14 d, 40° C. ([4]; in Polymer P7): 975 ppm | active-substance concentration, 28 d, 40° C. ([4]; in Polymer P7): 966 ppm | active-substance concentration, 60 d 40° C. ([4]; in Polymer P7): 953 ppm | active-substance concentration, 0 d, RT ([4]; in Polymer P8): 1000 ppm | active-substance concentration, 14 d, 40° C. ([4]; in Polymer P8): 960 ppm | active-substance concentration, 28 d, 40° C. ([4]; in Polymer P8): 960 ppm | active-substance concentration, 60 d 40° C. ([4]; in Polymer P8): 940 ppm | active-substance concentration, 0 d, RT ([4]; in Polymer P9): 1000 ppm | active-substance concentration, 14 d, 40° C. ([4]; in Polymer P9): 960 ppm | active-substance concentration, 28 d, 40° C. ([4]; in Polymer P9): 960 ppm | active-substance concentration, 60 d 40° C. ([4]; in Polymer P9): 940 ppm
Structure (SMILES): CCCCCCCCCCCCCCCC[N+](C)(C)Cc1ccccc1.[Cl-] [Polymer 16-BAC, cetylalkonium chloride]
60 d 40° C., yeast assess., 4th inoculation ([3]; Polymer P1): − (slight growth, max. 100 colonies) | Start sample measurement, yeast assess., 4th inoculation ([3]; Polymer P2): − (slight growth, max. 100 colonies) | 60 d 40° C., yeast assess., 4th inoculation ([3]; Polymer P2): − (slight growth, max. 100 colonies) | Start sample measurement, yeast assess., 4th inoculation ([3]; Polymer P3): − (slight growth, max. 100 colonies) | 60 d 40° C., yeast assess., 4th inoculation ([3]; Polymer P3): − (slight growth, max. 100 colonies) | Start sample measurement, yeast assess., 4th inoculation ([3]; Polymer P4): − (slight growth, max. 100 colonies) | 60 d 40° C., yeast assess., 4th inoculation ([3]; Polymer P4): − (slight growth, max. 100 colonies) | Start sample measurement, yeast assess., 4th inoculation ([3]; Polymer P5 (HP56)): − (slight growth, max. 100 colonies) | 60 d 40° C., yeast assess., 4th inoculation ([3]; Polymer P5 (HP56)): − (slight growth, max. 100 colonies) | Start sample measurement, yeast assess., 4th inoculation ([3]; Polymer P6): − (slight growth, max. 100 colonies) | 60 d 40° C., yeast assess., 4th inoculation ([3]; Polymer P6): − (slight growth, max. 100 colonies) | Start sample measurement, yeast assess., 4th inoculation ([3]; Polymer P7): − (slight growth, max. 100 colonies) | 60 d 40° C., yeast assess., 4th inoculation ([3]; Polymer P7): − (slight growth, max. 100 colonies) | 60 d 40° C., yeast assess., 4th inoculation ([3]; Polymer P8): − (slight growth, max. 100 colonies) | 60 d 40° C., yeast assess., 4th inoculation ([3]; Polymer P9): − (slight growth, max. 100 colonies)
